Assay results as given in patent US20190382850A1, “METHOD FOR IDENTIFYING MITOCHONDRIAL DNA IN EXTRACELLULAR VESICLES AND TREATMENT OF MTDNA-RELATED DISORDERS AND CANCER” (Memorial Sloan-Kettering Cancer Center, priority 2017, published 2019).

Test system: MCF7 model metastases
Test: Metastatic assay: mastectomy followed by adjuvant HT in MCF7 tumor-bearing mice
Format: in vivo
Settings: adjuvant tamoxifen after mastectomy, followed ~9 months
Description: FIG. 8 reports that OXPHOS inhibition abrogates HTR disease. (Panel a), Proliferation potential as determined by in vitro cell growth (CalceinAM) in luminal (ER+) and triple negative cancer cell lines cultured in media with increasing concentration of glucose. (Panel b), Oxygen consumption rates (OCR)±oligomycin (200 nM)/rotenone (100 nM) in MCF7 and MDA-MB-231 cells as determined by seahorse technology. (Panel c), Desmin immunohistochemical images of CAFs in HTS/HTR-derived tissues (scale bar 25 μm). (Panel d), Schematic analysis of the generation of metastatic HTR disease in mice. […] Metastatic burden was analyzed by BLI and at necropsy by histological examination (H&E). (Panel e), Proliferation potential in presence of oligomycin (100 nM) and ±HT as determined by in vitro BLI in metastatic cells from HTS and HTR cells FACS purified from xenografts (FIG. 2a). Error bars, mean±s.d. of BLI from n=3 samples. (Panel f), mtDNA/nDNA level in circulating EVs from HTR xenografts as determined by copy number (GAPDH, ND1: qPCR Fold change). Data are reported as error bars, mean±s.d. of n=3 independent experiments (a, e-g). *P<0.05 (Student's t-test) and GLM anova after multiple comparisons (a).
All cancer cell lines were engineered to express a GFP positive luciferase expression vector for in vitro and in vivo imaging studies. […] EV-number was determined by Nanosight. […]

CC/C(=C(\c1ccccc1)c1ccc(OCCN(C)C)cc1)c1ccccc1 [tamoxifen]
HT treated mice with no evidence of disease: 90% | HT treated mice with wide-spread (>20) HTR metastases involving multiple organs: 10%
